Each structure is given as a SMILES string.

The term solubility (mole fraction) denotes the moles of solute divided by all moles in the saturated solution.

As to `COc1ccc(C2CC(=O)c3c(O)cc(O)cc3O2)cc1O` (stereo not given), the solubility (mole fraction) (in n-octanol, 298.15 K) came out at 0.00269; the solubility (mole fraction) (in n-octanol, 303.15 K) worked out at 0.00299; the solubility (mole fraction) (in n-octanol, 308.15 K) worked out at 0.0033; the solubility (mole fraction) (in n-octanol, 313.15 K) was determined as 0.00379; the solubility (mole fraction) (in n-octanol, 318.15 K) worked out at 0.0042; the solubility (mole fraction) (in water, 298.15 K) was 5.51e-08. In addition, the solubility (mole fraction) reads like this: (in water, 303.15 K) 1.35e-07; (in water, 308.15 K) 2.52e-07; (in water, 313.15 K) 4.66e-07; (in water, 318.15 K) 7.9e-07.
As for `COc1ccc(-c2coc3cc(O)ccc3c2=O)cc1`, the solubility (mole fraction) (in n-octanol, 298.15 K) was determined as 0.00056; the solubility (mole fraction) (in n-octanol, 303.15 K) worked out at 0.0006; the solubility (mole fraction) (in n-octanol, 308.15 K) amounted to 0.00065; the solubility (mole fraction) (in n-octanol, 313.15 K) was 0.00069; the solubility (mole fraction) (in n-octanol, 318.15 K) stood at 0.00075; the solubility (mole fraction) (in water, 298.15 K) turned out to be 7.85e-10. Besides, the solubility (mole fraction) worked out at 3.51e-09 (in water, 303.15 K); 6.78e-09 (in water, 308.15 K); 1.08e-08 (in water, 313.15 K); 1.5e-08 (in water, 318.15 K).
In the case of `O=C1c2c(O)cc(O)cc2OC(c2ccc(O)c(O)c2)C1O` (stereo not given), the solubility (mole fraction) is 0.0127 (in n-octanol, 298.15 K); 0.0141 (in n-octanol, 303.15 K); 0.0157 (in n-octanol, 308.15 K); 0.0176 (in n-octanol, 313.15 K); 0.0196 (in n-octanol, 318.15 K); 2.55e-05 (in water, 298.15 K). Also, the solubility (mole fraction) was determined as 3.18e-05 (in water, 303.15 K); 4.5e-05 (in water, 308.15 K); 6.88e-05 (in water, 313.15 K); 8.05e-05 (in water, 318.15 K).
On to `O=c1cc(-c2ccccc2)oc2cc(O)cc(O)c12`, for which the solubility (mole fraction) is, setting by setting: (in n-octanol, 298.15 K) 0.00208; (in n-octanol, 303.15 K) 0.00218; (in n-octanol, 308.15 K) 0.00228; (in n-octanol, 313.15 K) 0.00234; (in n-octanol, 318.15 K) 0.00247; (in water, 298.15 K) 5.95e-10. Moreover, the solubility (mole fraction) was 1.24e-09 (in water, 303.15 K); 3.63e-09 (in water, 308.15 K); 1e-08 (in water, 313.15 K); 1.88e-08 (in water, 318.15 K).
Consider `O=c1c(O)c(-c2ccc(O)cc2)oc2cc(O)cc(O)c12`, for which the solubility (mole fraction) (in n-octanol, 298.15 K) is 0.00857; the solubility (mole fraction) (in n-octanol, 303.15 K) turned out to be 0.00895; the solubility (mole fraction) (in n-octanol, 308.15 K) was 0.00965; the solubility (mole fraction) (in n-octanol, 313.15 K) stood at 0.0103; the solubility (mole fraction) (in n-octanol, 318.15 K) is 0.0118; the solubility (mole fraction) (in water, 298.15 K) is 4.59e-10. Further, the solubility (mole fraction) is, setting by setting: (in water, 303.15 K) 1.17e-09; (in water, 308.15 K) 2.31e-09; (in water, 313.15 K) 4.48e-09; (in water, 318.15 K) 7.65e-09.
With `O=c1cc(-c2ccc(O)c(O)c2)oc2cc(O)cc(O)c12`, the solubility (mole fraction) reads like this: (in n-octanol, 298.15 K) 0.0002; (in n-octanol, 303.15 K) 0.00021; (in n-octanol, 308.15 K) 0.00023; (in n-octanol, 313.15 K) 0.00025; (in n-octanol, 318.15 K) 0.00027; (in water, 298.15 K) 4.54e-08. For the same compound, the solubility (mole fraction) is 6.74e-08 (in water, 303.15 K); 1.2e-07 (in water, 308.15 K); 1.91e-07 (in water, 313.15 K); 3.74e-07 (in water, 318.15 K).
For the compound `O=C1C[C@@H](c2ccc(O)cc2)Oc2cc(O)cc(O)c21`, the solubility (mole fraction) was 0.00903 (in n-octanol, 298.15 K); 0.00963 (in n-octanol, 303.15 K); 0.0103 (in n-octanol, 308.15 K); 0.0109 (in n-octanol, 313.15 K); 0.0114 (in n-octanol, 318.15 K); 1.79e-07 (in water, 298.15 K). Further, the solubility (mole fraction) is, setting by setting: (in water, 303.15 K) 2.98e-07; (in water, 308.15 K) 4.96e-07; (in water, 313.15 K) 7.64e-07; (in water, 318.15 K) 1.1e-06.
For the compound `O=c1cc(-c2ccc(O)cc2)oc2cc(O)cc(O)c12`, the solubility (mole fraction) came to 0.00077 (in n-octanol, 298.15 K); 0.0008 (in n-octanol, 303.15 K); 0.00084 (in n-octanol, 308.15 K); 0.00094 (in n-octanol, 313.15 K); 0.00102 (in n-octanol, 318.15 K); 7.47e-09 (in water, 298.15 K). For the same compound, the solubility (mole fraction) by setting is: (in water, 303.15 K) 1.73e-08; (in water, 308.15 K) 2.96e-08; (in water, 313.15 K) 5.87e-08; (in water, 318.15 K) 1.03e-07.
On to `O=c1c(O)c(-c2ccc(O)cc2O)oc2cc(O)cc(O)c12`, for which the solubility (mole fraction) was 0.00226 (in n-octanol, 298.15 K); 0.00235 (in n-octanol, 303.15 K); 0.00251 (in n-octanol, 308.15 K); 0.00265 (in n-octanol, 313.15 K); 0.00288 (in n-octanol, 318.15 K); 6.19e-09 (in water, 298.15 K). Moreover, the solubility (mole fraction) reads like this: (in water, 303.15 K) 2.24e-08; (in water, 308.15 K) 3.25e-08; (in water, 313.15 K) 4.57e-08; (in water, 318.15 K) 9.53e-08.
For `O=c1c(O)c(-c2ccc(O)c(O)c2)oc2cc(O)cc(O)c12`, the solubility (mole fraction) runs as follows: (in n-octanol, 298.15 K) 0.00526; (in n-octanol, 303.15 K) 0.00608; (in n-octanol, 308.15 K) 0.00677; (in n-octanol, 313.15 K) 0.00747; (in n-octanol, 318.15 K) 0.00823; (in water, 298.15 K) 5.29e-09. Further, the solubility (mole fraction) (in water, 303.15 K) is 1.02e-08; the solubility (mole fraction) (in water, 308.15 K) was found to be 1.61e-08; the solubility (mole fraction) (in water, 313.15 K) amounted to 2.34e-08; the solubility (mole fraction) (in water, 318.15 K) worked out at 3.78e-08.

These data come from BigSolDB 2.1.
